From publication PMC3401593 (Journal of Pharmaceutical Sciences, 2009)
Marks after values point to notes of the source that are not given here.

Tests used:
[1] = system: mdr1a/b (+/+) and mdr1a/b (−/−) mice; conditions: mouse, in vivo
[2] = mouse, in vivo, sc
P-gp = assay: in vitro; conditions: human, Caco-2, Papp B–A
in vitro = conditions: human, Caco-2

CCC(=O)C(CC(C)N(C)C)(c1ccccc1)c1ccccc1 (centres unmarked) [Methadone, methadone]
%MPE, P-gp knockout mice versus wild-type [1]: significantly higher | Area Under the Effect Curve (AUEC), mdr1a/b (+/+) [1]: 1501.85 ± 246.45 % MPE × min | Area Under the Effect Curve (AUEC), mdr1a/b (−/−) [1]: 4099.26 ± 488.58 ^a % MPE × min | Time of peak %MPE [1]: 15 min | Levels in liver and kidney tissues, mdr1a/b (−/−) versus mdr1a/b (+/+) mice [2]: no significant differences | Papp B→A (P-gp): 19.4 ± 1.01 ×10⁻⁶ cm/s

OC[C@@H](O)[C@@H](O)[C@H](O)[C@H](O)CO [mannitol]
Papp at 0.2 μCi/mL (in vitro): 5.21 ×10⁻⁶ cm/s

buprenorphine
AUEC Ratio mdr1a/b (−/−)/mdr1a/b (+/+) [1]: 1.47 ± 0.3 | Area Under the Effect Curve (AUEC), mdr1a/b (+/+) [1]: 1943.74 ± 326.81 % MPE × min | Area Under the Effect Curve (AUEC), mdr1a/b (−/−) [1]: 2854.93 ± 325.27 % MPE × min | Time of peak %MPE [1]: 45 min
